Data reported in PubChem BioAssay AID330 (DTP/NCI, 2004).
Where “and” joins values, the source holds several entries; their conditions need not be identical. Equal entries are not always repeated. Inconclusive results and toxic doses are left out.

Test system: P388 leukemia ip, CD2F1 mice, survival T/C
Test: NCI In Vivo Anticancer Drug Screen. Data for tumor model P388 Leukemia (intraperitoneal) in CD2F1 (CDF1) mice
Settings: endpoint: median survival time, higher = longer survival
How it was run: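 Mice carrying the transplanted tumor received test compound or vehicle. Survival was recorded in each group, and the value is the treated-group measurement divided by that of the vehicle-treated control group.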

[1] = dose: 50.0 mg/kg/injection, schedule: Q01DX005 (ip), vehicle: Klucel (hydroxypropylcellulose) (HPC)
[2] = dose: 100.0 mg/kg/injection, schedule: Q01DX005 (ip), vehicle: Klucel (hydroxypropylcellulose) (HPC)
[3] = dose: 200.0 mg/kg/injection, schedule: Q01DX005 (ip), vehicle: Klucel (hydroxypropylcellulose) (HPC)
[4] = dose: 50.0 mg/kg/injection, schedule: Q01DX009 (ip), vehicle: saline
[5] = dose: 100.0 mg/kg/injection, schedule: Q01DX009 (ip), vehicle: saline
[6] = dose: 200.0 mg/kg/injection, schedule: Q01DX009 (ip), vehicle: saline
[7] = dose: 50.0 mg/kg/injection, schedule: Q01DX009 (ip), vehicle: saline with Tween-80
[8] = dose: 100.0 mg/kg/injection, schedule: Q01DX009 (ip), vehicle: saline with Tween-80
[9] = dose: 200.0 mg/kg/injection, schedule: Q01DX009 (ip), vehicle: saline with Tween-80
[10] = dose: 50.0 mg/kg/injection, schedule: Q01DX005 (ip), vehicle: saline with Tween-80
[11] = dose: 100.0 mg/kg/injection, schedule: Q01DX005 (ip), vehicle: saline with Tween-80
[12] = dose: 200.0 mg/kg/injection, schedule: Q01DX005 (ip), vehicle: saline with Tween-80
[13] = dose: 60.0 mg/kg/injection, schedule: Q01DX005 (ip), vehicle: Klucel + Tween-80
[14] = dose: 120.0 mg/kg/injection, schedule: Q01DX005 (ip), vehicle: Klucel + Tween-80
[15] = dose: 240.0 mg/kg/injection, schedule: Q01DX005 (ip), vehicle: Klucel + Tween-80
[16] = dose: 100.0 mg/kg/injection, schedule: Q01DX001 (ip), vehicle: saline with Tween-80

CC1SC2(C(=O)Nc3ccccc32)N(c2ccc(O)cc2)C1=O (stereo not given)
T/C (dose: 60.0 mg/kg/injection, schedule: Q01DX005 (ip), vehicle: Klucel (hydroxypropylcellulose) (HPC)): 91 % of control
T/C (dose: 120.0 mg/kg/injection, schedule: Q01DX005 (ip), vehicle: Klucel (hydroxypropylcellulose) (HPC)): 100 % of control
T/C (dose: 240.0 mg/kg/injection, schedule: Q01DX005 (ip), vehicle: Klucel (hydroxypropylcellulose) (HPC)): 94 % of control

NC(=O)N=C(N)N
T/C [1]: 106 % of control
T/C [2]: 98 % of control
T/C [3]: 101 % of control and 106 % of control

CCCCCCCCCCCC(=O)N(CCO)CCc1ccccc1
T/C (dose: 25.0 mg/kg/injection, schedule: Q01DX009 (ip), vehicle: saline): 101 % of control and 91 % of control
T/C [4]: 101 % of control and 109 % of control and 95 % of control
T/C [5]: 100 % of control and 103 % of control
T/C [6]: 103 % of control and 110 % of control

CCOC(=O)C(C)(C)Br
T/C (dose: 100.0 mg/kg/injection, schedule: Q01DX009 (ip), vehicle: saline sonified): 105 % of control
T/C (dose: 200.0 mg/kg/injection, schedule: Q01DX009 (ip), vehicle: saline sonified): 105 % of control
T/C (dose: 400.0 mg/kg/injection, schedule: Q01DX009 (ip), vehicle: saline sonified): 115 % of control

CNC(=O)c1nnn(Cc2ccc(OC)cc2)c1Cl
T/C [1]: 91 % of control
T/C [2]: 100 % of control
T/C [3]: 100 % of control

COc1cc(Br)cc(OC)c1N=Cc1ccccc1
T/C [7]: 102 % of control
T/C [8]: 97 % of control
T/C [9]: 100 % of control

CC(=O)CC(C)(C)c1ccccc1
T/C (dose: 25.0 mg/kg/injection, schedule: Q01DX009 (ip), vehicle: saline with Tween-80): 106 % of control
T/C [7]: 104 % of control
T/C [8]: 107 % of control and 108 % of control
T/C [9]: 103 % of control and 116 % of control
T/C (dose: 400.0 mg/kg/injection, schedule: Q01DX009 (ip), vehicle: saline with Tween-80): 113 % of control and 95 % of control

CSCc1cc(Cl)cc2c1OCOC2
T/C [7]: 102 % of control
T/C [8]: 96 % of control
T/C [9]: 100 % of control

O=c1cc([N+](=O)[O-])c2c([nH]1)CCC2
T/C [10]: 97 % of control
T/C [11]: 94 % of control
T/C [12]: 90 % of control

O=NNc1ccc([N+](=O)[O-])cc1
T/C (dose: 3.12 mg/kg/injection, schedule: Q01DX009 (ip), vehicle: water): 102 % of control
T/C (dose: 6.25 mg/kg/injection, schedule: Q01DX009 (ip), vehicle: water): 112 % of control and 121 % of control
T/C (dose: 25.0 mg/kg/injection, schedule: Q01DX009 (ip), vehicle: water): 152 % of control
T/C (dose: 50.0 mg/kg/injection, schedule: Q01DX009 (ip), vehicle: water): 159 % of control

N#CCCn1ncc(C#N)c1N
T/C [1]: 99 % of control
T/C [2]: 107 % of control
T/C [3]: 90 % of control

CCC(c1ccc(O)cc1)C(CC)c1ccc(OCCN)cc1 (stereo not given)
T/C (dose: 30.0 mg/kg/injection, schedule: Q01DX005 (ip), vehicle: saline with Tween-80): 111 % of control
T/C (dose: 60.0 mg/kg/injection, schedule: Q01DX005 (ip), vehicle: saline with Tween-80): 103 % of control and 121 % of control
T/C (dose: 120.0 mg/kg/injection, schedule: Q01DX005 (ip), vehicle: saline with Tween-80): 100 % of control

COc1ccc(/C(O)=C/c2nc3ccc([N+](=O)[O-])cc3[nH]c2=O)cc1
T/C [13]: 97 % of control
T/C [14]: 94 % of control
T/C [15]: 95 % of control

Nc1nsc(Cl)n1
T/C (dose: 25.0 mg/kg/injection, schedule: Q01DX001 (ip), vehicle: saline with Tween-80): 97 % of control
T/C (dose: 50.0 mg/kg/injection, schedule: Q01DX001 (ip), vehicle: saline with Tween-80): 106 % of control
T/C [16]: 99 % of control

Cc1cc(N=Nc2ccc(NC(=O)c3ccc(N)cc3)cc2C)ccc1N=Nc1ccc2cc(S(=O)(=O)O)cc(S(=O)(=O)O)c2c1
T/C [10]: 97 % of control
T/C (dose: 50.0 mg/kg/injection, schedule: Q01DX005 (ip), vehicle: saline): 107 % of control
T/C (dose: 50.0 mg/kg/injection, schedule: Q01DX005 (ip), vehicle: suspension in saline): 101 % of control
T/C [11]: 90 % of control
T/C (dose: 100.0 mg/kg/injection, schedule: Q01DX005 (ip), vehicle: saline): 121 % of control
T/C (dose: 100.0 mg/kg/injection, schedule: Q01DX005 (ip), vehicle: suspension in saline): 111 % of control
T/C [12]: 113 % of control
T/C (dose: 200.0 mg/kg/injection, schedule: Q01DX005 (ip), vehicle: saline): 121 % of control
T/C (dose: 200.0 mg/kg/injection, schedule: Q01DX005 (ip), vehicle: suspension in saline): 113 % of control
T/C (dose: 400.0 mg/kg/injection, schedule: Q01DX005 (ip), vehicle: saline with Tween-80): 109 % of control

O=c1[nH]c2cc([N+](=O)[O-])ccc2nc1/C=C(\O)c1ccncc1
T/C [13]: 94 % of control
T/C [14]: 88 % of control
T/C [15]: 100 % of control

CC(=O)OC1C=CC(=O)C1(O)CO (stereo not given)
T/C (dose: 2.0 mg/kg/injection, schedule: Q01DX009 (ip), vehicle: saline): 97 % of control
T/C (dose: 4.0 mg/kg/injection, schedule: Q01DX009 (ip), vehicle: saline): 98 % of control
T/C (dose: 8.0 mg/kg/injection, schedule: Q01DX009 (ip), vehicle: saline): 118 % of control
T/C (dose: 16.0 mg/kg/injection, schedule: Q01DX009 (ip), vehicle: saline): 116 % of control

CCC/C(=N\NC(N)=NC)c1ccc2c(c1)Cc1ccccc1-2
T/C (dose: 50.0 mg/kg/injection, schedule: Q04DX002 (ip), vehicle: saline with Tween-80): 106 % of control
T/C (dose: 100.0 mg/kg/injection, schedule: Q04DX002 (ip), vehicle: saline with Tween-80): 102 % of control
T/C (dose: 200.0 mg/kg/injection, schedule: Q04DX002 (ip), vehicle: saline with Tween-80): 104 % of control

CCOc1cccc2c1C(=O)c1cccc(OCC)c1C2=O
T/C (dose: 100.0 mg/kg/injection, schedule: Q04DX003 (ip), vehicle: saline with Tween-80): 109 % of control
T/C (dose: 200.0 mg/kg/injection, schedule: Q04DX003 (ip), vehicle: saline with Tween-80): 104 % of control
T/C (dose: 400.0 mg/kg/injection, schedule: Q04DX003 (ip), vehicle: saline with Tween-80): 100 % of control

CCc1nnc2cccc(Cl)n12
T/C (dose: 100.0 mg/kg/injection, schedule: Q01DX001 (ip), vehicle: Klucel (hydroxypropylcellulose) (HPC)): 100 % of control
T/C (dose: 200.0 mg/kg/injection, schedule: Q01DX001 (ip), vehicle: Klucel (hydroxypropylcellulose) (HPC)): 109 % of control
T/C (dose: 400.0 mg/kg/injection, schedule: Q01DX001 (ip), vehicle: Klucel (hydroxypropylcellulose) (HPC)): 100 % of control

CSC(=S)N/N=C/c1nccc(-c2ccccc2)c1C
T/C [4]: 97 % of control
T/C [5]: 108 % of control
T/C [6]: 96 % of control

Cc1ccccc1C1(C)C(=O)c2ccccc2C1=O
T/C (dose: 100.0 mg/kg/injection, schedule: Q04DX002 (ip), vehicle: saline): 101 % of control
T/C (dose: 200.0 mg/kg/injection, schedule: Q04DX002 (ip), vehicle: saline): 106 % of control
T/C (dose: 400.0 mg/kg/injection, schedule: Q04DX002 (ip), vehicle: saline): 100 % of control

NC(=S)n1nc(-c2ccccc2)c(N=Nc2cccc(Cl)c2Cl)c1-c1ccccc1
T/C [16]: 89 % of control
T/C (dose: 200.0 mg/kg/injection, schedule: Q01DX001 (ip), vehicle: saline with Tween-80): 94 % of control
T/C (dose: 400.0 mg/kg/injection, schedule: Q01DX001 (ip), vehicle: saline with Tween-80): 97 % of control

CC1=C2CC3CCC(C)C2(CC1)C3(C)C (stereo not given)
T/C [4]: 98 % of control
T/C [5]: 95 % of control
T/C (dose: 100.0 mg/kg/injection, schedule: Q04DX003 (ip), vehicle: saline): 95 % of control
T/C [6]: 95 % of control
T/C (dose: 200.0 mg/kg/injection, schedule: Q04DX003 (ip), vehicle: saline): 95 % of control
T/C (dose: 400.0 mg/kg/injection, schedule: Q04DX003 (ip), vehicle: saline): 100 % of control

COC(=O)Nc1cn2ccc(C(Cl)=C(Cl)Cl)cc2n1
T/C (dose: 50.0 mg/kg/injection, schedule: Q01DX009 (ip), vehicle: Klucel (hydroxypropylcellulose) (HPC)): 107 % of control and 109 % of control
T/C (dose: 100.0 mg/kg/injection, schedule: Q01DX009 (ip), vehicle: Klucel (hydroxypropylcellulose) (HPC)): 117 % of control and 122 % of control
T/C (dose: 200.0 mg/kg/injection, schedule: Q01DX009 (ip), vehicle: Klucel (hydroxypropylcellulose) (HPC)): 116 % of control
